Laboratory results: ChEMBL document CHEMBL1148160, “Planaxool: a novel cytotoxic cembranoid form the mollusk Planaxis sulcatus” (1993)

Tested on: L1210
Assay: Cytotoxicity against mouse L1210 cells
Type: functional

C/C1=C\CC[C@]2(C)O[C@H]([C@@H]3OC(=O)[C@]4(OO)CCO[C@@H]2C[C@H]34)[C@H](C)CCC1 [PLANAXOOL]
IC100: 2.4 µg/mL
